Assay results from patent US20250320213A1, “Nitrogen-Containing Heterocyclic Compounds” (Pfizer Inc., priority 2024, published 2025).
Like-named read-outs stand apart in the source and are kept apart here.

How the values were obtained:
[1] = target: T1, STAT6 (Homo sapiens, UniProt P42226); test: STAT6 Reporter Luciferase Assay (IL-13 stimulated HaCaT keratinocyte NanoLuc reporter cells); type: cell-based; settings: read-out: Reporter EC50
T1 construct: stably transfected HaCaT keratinocyte cell line, which expresses NanoLuc luciferase reporter gene under the transcriptional control of the STAT6 responsive promoter; endogenous in cells; host or cells: HaCaT keratinocyte reporter cell line (stably transfected with a NanoLuc reporter)
T1 sequence (P42226 1-847): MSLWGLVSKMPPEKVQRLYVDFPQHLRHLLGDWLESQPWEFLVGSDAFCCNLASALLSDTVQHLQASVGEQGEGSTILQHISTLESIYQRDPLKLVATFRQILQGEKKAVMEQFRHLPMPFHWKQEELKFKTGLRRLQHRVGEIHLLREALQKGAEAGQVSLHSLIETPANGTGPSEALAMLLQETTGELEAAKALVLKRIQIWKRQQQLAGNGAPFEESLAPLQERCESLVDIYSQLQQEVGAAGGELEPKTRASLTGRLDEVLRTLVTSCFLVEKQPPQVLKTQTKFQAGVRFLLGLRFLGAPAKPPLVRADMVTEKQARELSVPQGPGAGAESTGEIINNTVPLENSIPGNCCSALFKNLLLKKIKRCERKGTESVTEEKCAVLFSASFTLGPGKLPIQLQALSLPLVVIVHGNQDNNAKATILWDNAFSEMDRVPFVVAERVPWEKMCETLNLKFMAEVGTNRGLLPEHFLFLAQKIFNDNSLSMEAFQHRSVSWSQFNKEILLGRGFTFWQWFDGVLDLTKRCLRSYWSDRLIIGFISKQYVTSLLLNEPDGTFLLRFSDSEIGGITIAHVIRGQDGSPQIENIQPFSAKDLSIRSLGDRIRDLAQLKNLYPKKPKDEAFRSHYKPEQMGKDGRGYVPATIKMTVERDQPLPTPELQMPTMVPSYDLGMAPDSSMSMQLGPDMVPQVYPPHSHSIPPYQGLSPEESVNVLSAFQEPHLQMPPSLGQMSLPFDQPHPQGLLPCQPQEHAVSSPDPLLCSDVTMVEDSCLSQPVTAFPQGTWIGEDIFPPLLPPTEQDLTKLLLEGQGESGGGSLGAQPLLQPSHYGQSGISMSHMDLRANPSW
Method in brief: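 IL-13 (0.12 nM, 4 h) stimulated STAT6 reporter activity in HaCaT cells after a 2 h compound pre-incubation; NanoLuc signal was measured.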

[2] = test system: CCL17 secretion in peripheral human whole blood; test: Human Whole Blood (HWB) CCL17 TR-FRET Assay (IL-13 stimulated CCL17 secretion); type: cell-based
Method in brief: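 IC50 comes from serum CCL17 measured by a TR-FRET sandwich assay (16 h at room temperature, 665/615 nm ratio). Beforehand, blood in sodium heparin was exposed to an 11-point, 3-fold compound series for 2 h at 37°C and then to 10 ng/mL IL-13 for 48 h.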

[3] = STAT6 NanoLuc luciferase reporter, IL-13 stimulated HaCaT keratinocyte cells
[4] = Homo sapiens, 48 h, inhibition of CCL17 secretion in human whole blood, 10 ng/mL IL13, 48 hours
[5] = IL-13 stimulated HaCaT STAT6 NanoLuc reporter cells
[6] = Homo sapiens, 48 h, human whole blood, 10 ng/mL IL13, 48 hours
[7] = human whole blood, IL-13 stimulated, 48 hours
[8] = Homo sapiens, 48 h, human whole blood, IL-13 stimulated

Structure (SMILES) | EC50 [1, 5] | IC50 [2, 8] | further results
CC(C)n1nc(C(=O)NCc2ccc(NC(=O)N(C)C)cc2)c2c1CCN(c1ccc(N3CCOC3=O)cn1)C2 [Example 107, N-(4-(3,3-dimethylureido)benzyl)-1-isopropyl-5-(5-(2-oxooxazolidin-3-yl)pyridin-2-yl)-4,5,6,7-tetrahydro-1H-pyrazolo[4,3-c]pyridine-3-carboxamide] | – | – | EC50 [1, 3]: 13 nM; IC50 [2, 4]: 219 nM
CC1COC(=O)N1c1ccc(N2CCc3c(c(C(=O)NCc4ccc(NC(=O)N(C)C)cc4)nn3C(C)C)C2)nc1 (stereo not drawn) [Example 99, N-(4-(3,3-dimethylureido)benzyl)-1-isopropyl-5-(5-(4-methyl-2-oxooxazolidin-3-yl)pyridin-2-yl)-4,5,6,7-tetrahydro-1H-pyrazolo[4,3-c]pyridine-3-carboxamide] | – | – | EC50 [1, 3]: 17 nM; IC50 [2, 4]: 453 nM
CC(C)n1nc(C(=O)NCc2ccc(NC(=O)N(C)C)cn2)c2c1C[C@H](C)N(c1ncc(C(=O)N(C)C)cn1)C2 [Example 533, (S)-5-(5-(dimethylcarbamoyl)pyrimidin-2-yl)-N-((5-(3,3-dimethylureido)pyridin-2-yl)methyl)-1-isopropyl-6-methyl-4,5,6,7-tetrahydro-1H-pyrazolo[4,3-c]pyridine-3-carboxamide] | 5 nM | – | IC50 [2, 6]: 18 nM
Cc1coc(-c2ccc(CNC(=O)c3nn(C(C)C)c4c3CN(c3ccc(C(=O)N(C)C)cc3)C[C@@H]4C)cc2)n1 [Example 723, (S)-5-(4-(dimethylcarbamoyl)phenyl)-1-isopropyl-7-methyl-N-(4-(4-methyloxazol-2-yl)benzyl)-4,5,6,7-tetrahydro-1H-pyrazolo[4,3-c]pyridine-3-carboxamide] | 128 nM | – | IC50 ([2]; Homo sapiens, 48 h, human whole blood, IL-13 10 ng/mL): 665 nM
CCn1nc(C(=O)NCc2ccc(NC(=O)N(C)C)cc2)c2c1C(C(F)(F)F)CN(c1ccc(C(=O)N(C)C)cn1)C2 (single isomer, unassigned) [Example 304, rel-(R or S)-5-(5-(dimethylcarbamoyl)pyridin-2-yl)-N-(4-(3,3-dimethylureido)benzyl)-1-ethyl-7-(trifluoromethyl)-4,5,6,7-tetrahydro-1H-pyrazolo[4,3-c]pyridine-3-carboxamide] | 0.3 nM | – | IC50 [2, 7]: 4 nM
CC(C)n1nc(C(=O)NCc2ccc(NC(=O)N3CC[C@H](C#N)C3)cc2)c2c1CCN(c1ccc(C(=O)N(C)C)cn1)C2 [Example 182, (S)-N-(4-(3-cyanopyrrolidine-1-carboxamido)benzyl)-5-(5-(dimethylcarbamoyl)pyridin-2-yl)-1-isopropyl-4,5,6,7-tetrahydro-1H-pyrazolo[4,3-c]pyridine-3-carboxamide] | 17 nM | 131 nM | –
CN(C)C(=O)Nc1ccc(CNC(=O)c2nn(C3CCOCC3)c3c2CN(c2ccc(C(=O)N(C)C)cn2)CC3)cc1 [Example 76, 5-(5-(dimethylcarbamoyl)pyridin-2-yl)-N-(4-(3,3-dimethylureido)benzyl)-1-(tetrahydro-2H-pyran-4-yl)-4,5,6,7-tetrahydro-1H-pyrazolo[4,3-c]pyridine-3-carboxamide] | – | – | EC50 [1, 3]: 57 nM; IC50 [2, 4]: 156 nM
CCn1nc(C(=O)NCc2ccc(C(=O)NC)cc2)c2c1C(C(F)(F)F)CN(c1ccc(C(=O)N(C)C)cn1)C2 (racemic) [Example 463, rac-(R)-5-(5-(dimethylcarbamoyl)pyridin-2-yl)-1-ethyl-N-(4-(methylcarbamoyl)benzyl)-7-(trifluoromethyl)-4,5,6,7-tetrahydro-1H-pyrazolo[4,3-c]pyridine-3-carboxamide] | 2.7 nM | 23 nM | –
CCn1nc(C(=O)NCc2ccc(C(=O)NC)cc2)c2c1[C@@H](C)CN(c1ccc(C(=O)N(C)C)cn1)C2 [Example 284, (S)-5-(5-(dimethylcarbamoyl)pyridin-2-yl)-1-ethyl-7-methyl-N-(4-(methylcarbamoyl)benzyl)-4,5,6,7-tetrahydro-1H-pyrazolo[4,3-c]pyridine-3-carboxamide] | 8 nM | 40 nM | –
CC(C)n1nc(C(=O)NCc2ccc(NC(=O)N3CCC(CC4CCNCC4)CC3)cc2)c2c1[C@@H](C)CN(c1ccc(C(=O)N(C)C)cc1)C2 [Example 624, (S)-5-(4-(dimethylcarbamoyl)phenyl)-1-isopropyl-7-methyl-N-(4-(4-(piperidin-4-ylmethyl)piperidine-1-carboxamido)benzyl)-4,5,6,7-tetrahydro-1H-pyrazolo[4,3-c]pyridine-3-carboxamide] | 1 nM | – | IC50 [2, 6]: 18 nM
CNC(=O)Nc1ccc(CNC(=O)c2nn(C(C)C)c3c2CN(c2ccc(C(=O)NC)cn2)CC3)cc1 [Example 454, 1-isopropyl-5-(5-(methylcarbamoyl)pyridin-2-yl)-N-(4-(3-methylureido)benzyl)-4,5,6,7-tetrahydro-1H-pyrazolo[4,3-c]pyridine-3-carboxamide] | 128 nM | 720 nM | –
CCn1nc(C(=O)NCc2ccc(-c3ncc[nH]3)cc2)c2c1[C@@H](C)CN(c1ccc(C(=O)N(C)C)cn1)C2 [Example 283, (S)-N-(4-(1H-imidazol-2-yl)benzyl)-5-(5-(dimethylcarbamoyl)pyridin-2-yl)-1-ethyl-7-methyl-4,5,6,7-tetrahydro-1H-pyrazolo[4,3-c]pyridine-3-carboxamide] | 2 nM | 11 nM | –
CCn1nc(C(=O)NCc2ccc(NC(=O)N(C)C)cc2)c2c1C(C)(C)CN(c1ccc(C(=O)N(C)C)cn1)C2 [Example 238, 5-(5-(dimethylcarbamoyl)pyridin-2-yl)-N-(4-(3,3-dimethylureido)benzyl)-1-ethyl-7,7-dimethyl-4,5,6,7-tetrahydro-1H-pyrazolo[4,3-c]pyridine-3-carboxamide] | 2 nM | 9 nM | –
CC(C)n1nc(C(=O)NCc2ccc(NC(=O)N(C)C)cc2)c2c1CC(C(F)(F)F)N(c1ccc(C(=O)N(C)C)cn1)C2 (single isomer, unassigned) [Example 277, rel-(R or S)-5-(5-(dimethylcarbamoyl)pyridin-2-yl)-N-(4-(3,3-dimethylureido)benzyl)-1-isopropyl-6-(trifluoromethyl)-4,5,6,7-tetrahydro-1H-pyrazolo[4,3-c]pyridine-3-carboxamide] | 10 nM | – | IC50 [2, 7]: 109 nM
Cc1ccn(-c2ccc(N3CCc4c(c(C(=O)NCc5ccc(NC(=O)N(C)C)cc5)nn4C(C)C)C3)nc2)n1 [Example 47, N-(4-(3,3-dimethylureido)benzyl)-1-isopropyl-5-(5-(3-methyl-1H-pyrazol-1-yl)pyridin-2-yl)-4,5,6,7-tetrahydro-1H-pyrazolo[4,3-c]pyridine-3-carboxamide] | – | – | EC50 [1, 3]: 1180 nM; IC50 [2, 4]: > 30000 nM
CCn1nc(C(=O)NCc2ccc(NC(=O)N(C)C)cc2)c2c1CC(C(F)(F)F)N(c1ccc(C(=O)N(C)C)cn1)C2 (single isomer, unassigned) [Example 251, rel-(R or S)-5-(5-(dimethylcarbamoyl)pyridin-2-yl)-N-(4-(3,3-dimethylureido)benzyl)-1-ethyl-6-(trifluoromethyl)-4,5,6,7-tetrahydro-1H-pyrazolo[4,3-c]pyridine-3-carboxamide] | 10 nM | – | IC50 [2, 7]: 80 nM
C[C@H]1CN(c2ccc(C(=O)N(C)C)cn2)Cc2c(C(=O)NCc3ccc(NC(=O)N(C)C)cc3)nn(C3CCC3)c21 (single isomer, unassigned) [Example 119] | – | – | EC50 [1, 3]: 0.3 nM; IC50 [2, 4]: 4 nM
CC(C)n1nc(C(=O)NCc2ccc(N)cc2)c2c1[C@@H](C)CN(c1ccc(C(=O)N(C)C)cn1)C2 [Example 450, (S)-N-(4-aminobenzyl)-5-(5-(dimethylcarbamoyl)pyridin-2-yl)-1-isopropyl-7-methyl-4,5,6,7-tetrahydro-1H-pyrazolo[4,3-c]pyridine-3-carboxamide] | 21 nM | 93 nM | –
